Source: patent publication US20100303786A1, “Stabilisation of Liquid-Formulated Factor VII(A) Polypeptides by Aldehyde-Containing Compounds” (Novo Nordisk Health Care AG, priority 2007, published 2010)
“Also recorded” adds a separate entry of the source.

Tests used:
40K-PEG-rFVIIa [1] = biological target: T1, 40K-PEG-rFVIIa (Homo sapiens, UniProt P08709); assay: Stability of liquid 40K-PEG-rFVIIa formulations: clot activity (one-stage coagulation assay, Assay 3); format: biochemical; settings: 2 months at 5° C.; 28 mM benzaldehyde or 180 mM 5-formyl-4-methylimidazole
T1 construct: has been cleaved at the peptide bond preceding position 153
T1 sequence (P08709 213-466 limits assumed): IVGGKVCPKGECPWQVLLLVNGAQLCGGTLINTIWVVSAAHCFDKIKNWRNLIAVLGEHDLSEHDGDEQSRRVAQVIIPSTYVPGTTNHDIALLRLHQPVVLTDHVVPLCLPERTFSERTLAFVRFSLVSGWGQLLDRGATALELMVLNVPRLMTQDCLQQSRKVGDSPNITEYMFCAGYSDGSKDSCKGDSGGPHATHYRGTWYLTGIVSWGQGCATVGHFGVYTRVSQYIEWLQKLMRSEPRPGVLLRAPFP
T1 sequence (P08709 61-212 limits assumed): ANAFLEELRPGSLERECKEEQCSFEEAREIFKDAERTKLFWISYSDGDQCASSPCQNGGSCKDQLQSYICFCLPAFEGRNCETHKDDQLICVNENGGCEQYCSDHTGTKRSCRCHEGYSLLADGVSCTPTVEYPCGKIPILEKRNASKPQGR
Experimental: The clot assay is used to assess the ability of Factor VIIa polypeptides to make blood clot. For this purpose, the sample to be tested is diluted in 50 mM PIPES-buffer (pH 7.5), 0.1% BSA and 40 μl is incubated with 40 μl of Factor VII deficient plasma and 80 μl of human recombinant tissue factor containing 10 mM Ca2+ and synthetic phospholipids. Coagulation times (clotting times) are measured and compared to a standard curve using a reference standard in a parallel line assay.
A stability experiment with liquid formulations containing 40K-PEG-rFVIIa was performed. The formulations had the following compositions: […]
The PEG moiety is excluded in the specification of 40K-PEG-rFVIIa concentration. pH was 6.5 in all samples. At 0, ½, 1 and 2 months, 70 μl aliquots were taken from the stability sample, diluted to 1 mg/ml 40K-PEG-rFVIIa and assayed for clot activity (Δactivity), FVIIa polypeptide fragmentation (Δfragment), dimer/2-PEG, and high molecular weight protein.

40K-PEG-rFVIIa [2] = biological target: T1, 40K-PEG-rFVIIa; assay: Stability of liquid 40K-PEG-rFVIIa formulations: heavy chain fragmentation (Assay 5); format: physicochemical; settings: 2 months at 5° C.; 28 mM benzaldehyde or 180 mM 5-formyl-4-methylimidazole
Experimental: For the purpose of determining the content of heavy chain fragmentation products of 40K-PEG-rFVIIa, a reverse phase HPLC was run on a ACE 3 μm C4, 300 Å, 4.6×100 mm column (Advanced Chromatography Technologies, part. no. ACE-213-1046). Column temperature: 60° C. A-buffer: 0.05% v/v trifluoracetic acid. B-buffer: 0.06% v/v trifluoracetic acid, 80% v/v acetonitrile. Denaturation buffer: 6M Guanidine hydrochloride, 50 mM Tris, 5 mM calcium chloride, pH 7,5. Samples are prepared from 50 μl analysis sample+50 μl denaturation buffer+5 μl DTT+1 μl acetic acid and incubated at 60° C. for 15 min.
The column was eluted with a linear gradient from 35 to 80% B in 30 minutes. Flow rate: 0.7 mL/min. Detection: 214 nm. Load: 25 μg FVIIa. The initial content of heavy chain degradation products is subtracted from the measured content of heavy chain degradation product, i.e. the initial content of heavy chain degradation products is set to 0%. The content of heavy chain degradation products at the time x is then calculated as: […]
wherein HCDP(x) is the measured content of heavy chain degradation products at the time x, HCDP(0) is the measured initial content of heavy chain degradation products, and FVII(x) is the content of the intact Factor VII polypeptide at the time x.
A stability experiment with liquid formulations containing 40K-PEG-rFVIIa was performed. […]

rFVIIa = biological target: T2, rFVIIa (Homo sapiens, UniProt P08709); assay: Stability experiment: heavy chain fragmentation of rFVIIa after 4 weeks in benzaldehyde solutions; format: physicochemical; settings: 4 weeks at 5° C.; 12.5 mg/ml rFVIIa, pH 6.5; 0, 10, 20, 40 and 80 mM benzaldehyde; FIG. 5
T2 construct: has been cleaved at the peptide bond preceding position 153
T2 sequence (P08709 213-466 limits assumed): T1 sequence (P08709 213-466 limits assumed)
T2 sequence (P08709 61-212 limits assumed): T1 sequence (P08709 61-212 limits assumed)
Experimental: In the below working examples the content of heavy chain fragmentation products of Factor VIIa is determined by RP-HPLC as described in the following:
Reverse phase HPLC was run on a proprietary 4.5×250 mm butyl-bonded silica column with a particle size of 5 μm and pore size 300 Å. Column temperature: 70° C. A-buffer: 0.1% v/v trifluoracetic acid. B-buffer: 0.09% v/v trifluoracetic acid, 80% v/v acetonitrile. The column was eluted with a linear gradient from X to (X+13) % B in 30 minutes. X was adjusted so that FVIIa elutes with a retention time of approximately 26 minutes. Flow rate: 1.0 mL/min. Detection: 214 nm. Load: 25 μg FVIIa.
A stability experiment with liquid formulations containing FVIIa was performed. Conditions in all samples were 10 mM His, pH 6.5, 20 mM CaCl2, 6% sucrose, 0.5 mg/ml methionine, 12.5 mg/ml rFVIIa. 50 μl solutions with 0, 10, 20, 40 and 80 mM benzaldehyde in 500 μl cryotubes were prepared, incubated at 5° C. for 4 weeks and then frozen to −80° C. In addition, a reference sample without benzaldehyde was prepared and immediately frozen to −80° C. For analysis, all samples were thawed, diluted to 1 ml volume in 10 mM histidine, pH 5.5, and analysed for heavy chain fragmentation.

FVIIa = biological target: T3, FVIIa (Homo sapiens, UniProt P08709); assay: Thermo-fluorescence (thermal shift) measurement of FVIIa denaturation temperature in the presence of aldehydes; format: physicochemical; settings: 25 mM imidazole, pH 6.5, 20 mM CaCl2, 60 mg/ml sucrose; various aldehyde concentrations; FIG. 2
T3 construct: has been cleaved at the peptide bond preceding position 153
T3 sequence (P08709 213-466 limits assumed): T1 sequence (P08709 213-466 limits assumed)
T3 sequence (P08709 61-212 limits assumed): T1 sequence (P08709 61-212 limits assumed)
Experimental: The effect of aldehydes on Factor VIIa amidolytic activity is shown in an in vitro hydrolysis assay (20 mM imidazole, pH 6.5, 20 mM CaCl2), the results of which are illustrated in FIG. 1. A clear inhibition of amidolytic activity is observed. However, the apparent inhibition could be due to FVIIa denaturation. In order to address this issue, the denaturation temperature of FVIIa was measured in the presence of aldehydes. The measurement was performed by thermo-fluorescence, essentially as the thermal shift assay described by Lo et al., Analytical Biochemistry 332, 153-159 (2004). The denaturation temperature was determined as the point of maximum slope of the fluorescence intensity curve. The denaturation temperature is shown in FIG. 2 at various concentrations of aldehydes (25 mM imidazole, pH 6.5, 20 mM CaCl2, 60 mg/ml sucrose). […] Therefore, the inhibitory activity of these three compounds may be caused by denaturation.

Question: Which “Loss of activity / FVIIa polypeptide stability compared to the reference formulation” value (40K-PEG-rFVIIa [1]) does the source give for Cc1nc[nH]c1C=O [5-formyl-4-methylimidazol, 5-formyl-4-methylimidazole] here?
Answer: The value was “very large improvement in FVIIa polypeptide stability”.

Question: And the “Fragmentation compared to the reference formulation” value (40K-PEG-rFVIIa [2])?
Answer: Its value is “very large reduction in fragmentation”.

Question: What does the source list for O=Cc1ccccc1 [benzaldehyde]?
Answer: Fragmentation as a percentage of the total Factor VIIa content (% fragmented) (rFVIIa): decreases as the concentration of benzaldehyde is increased; also recorded: much lower in the presence of benzaldehyde, particularly in concentrations above 10 mM; Loss of activity / FVIIa polypeptide stability compared to the reference formulation (40K-PEG-rFVIIa [1]): small reduction in fragmentation and loss of activity; Fragmentation compared to the reference formulation (40K-PEG-rFVIIa [2]): small reduction in fragmentation; Effect on Factor VIIa denaturation temperature (melting point) (FVIIa): drops significantly at high aldehyde concentration; also recorded: affect the denaturation temperature at high concentrations
